For one assay, the system named is U373 glioma cells. As to the kind of experiment: MTT test, overall cell growth, U373. The assay is classed as cell-based, human. The following applies: 72 hours of incubation. The procedure:
(§1) MTT tests were performed in order to rapidly, i.e., within 5 days, measure the effect of the present compounds on the overall cell growth. The test measured the number of metabolically active living cells that were able to transform the yellow product 3-(4,5-dimethylthiazol-2-yl)-2,5-diphenyl tetrazolium bromide (herein referred as MTT) into the blue product formazan dye by mitochondrial reduction. The amount of formazan obtained at the end of the experiment, measured by means of a spectrophotometer, is directly proportional to the number of living cells. Optical density determination thus enabled a quantitative measurement of the effect of the investigated compounds as compared to the control condition (untreated cells) and/or to other reference compounds.
(§2) Five human cancer cell lines set forth in Table 3 were used in the MTT tests. These cancer cell lines cover two histological cancer types including glioma (Hs683, T98G, U373), and oesophageal (OE21, OE33) cancers. The U373 cell line is apoptosis-resistant but autophagy-sensitive.
(§3) To perform the assay, cells were allowed to grow in 96-well micro-wells with a flat bottom with an amount of 100 μl of cell suspension per well with 5,000 to 8,000 cells/well depending on the cell type used. Each cell line was seeded in its appropriate culture medium.
(§4) The detailed experimental procedure was as follows: after a 24-hour period of incubation at 37° C., the culture medium was replaced by 100 μl of fresh medium in which the tested compound was previously dissolved, at the following molar concentrations: 1×10^−8 M, 5×10^−8 M, 1×10^−7 M, 5×10^−7 M, 1×10^−6 M, 5×10^−6 M, 1×10^−5 M, 5×10^−5 M and 1×10^−4 M. Each experiment was performed in sestuplicate (6 times).
(§5) After 72 hours of incubation at 37° C. with (experimental conditions) or without (control condition) the compound to be tested, the medium was replaced by 100 μl MTT dissolved in RPMI (1640 without phenol red) at a concentration of 0.5 or 1 mg/ml. The micro-wells were subsequently incubated during 3 hours and a half at 37° C. and centrifuged at 1300 rpm during 10 minutes. MTT was removed and formazan crystals formed were dissolved in […]. The micro-wells were shaken for 5 minutes and read on a spectrophotometer at wavelengths of 570 nm (maximal formazan absorbance).
(§6) For each experimental condition, the mean optical density was calculated, allowing the determination of the percentage of remaining living cells in comparison to the control.
(§7) The origin of all the cell lines we used, along with their biological characteristics, and the validation procedures of the MTT colorimetric assay as employed here are fully detailed in Van Quaquebeke et al., 2005, J Med Chem 48:849-856; Ingrassia et al., 2009, J Med Chem 52:1100-1114; Mathieu et al., 2009, J Cell Mol Med, Feb. 20, 2009.
Background: Formazan colour is commonly taken as a measure of viable cells.

A further assay concerns T98G glioma cells. Briefly: MTT test, overall cell growth, T98G. The assay is classed as cell-based, human. The following applies: 72 hours of incubation. On the procedure: as §1, §2, §3, §4, §5, §6, §7
The next assay relates to Hs683 glioma cells. As to the kind of experiment: MTT test, overall cell growth, Hs683. The class given is cell-based, human. On the procedure: as §1, §2, §3, §4, §5, §6, §7
The subject of assay [1] is OE21 oesophageal cancer cells. As to the kind of experiment: MTT test, overall cell growth, OE21. The class given is cell-based, human. The procedure:
as §1, §2, §3, §4, §5, §6, §7

Assay [2] has as its system OE33 oesophageal cancer cells. As to the kind of experiment: MTT test, overall cell growth, OE33. The assay is classed as cell-based, human. The procedure:
as §1, §2, §3, §4, §5, §6, §7

The test system of assay [3] is human cancer cell lines (U373, T98G, Hs683, OE21, OE33). Briefly: MTT test, mean over the cancer cell lines. The class given is cell-based. On the procedure: as §1, §2, §3, §4, §5, §6, §7
For a further assay, the system named is U373 cells. Briefly: Cellular imaging (videomicroscopy) of cultured U373 cells: antiproliferative class and global growth ratio. The class given is cell-based, human. Set-up: key to Anti proliferative class / anti-proliferative class-GGR: class I: actually cytostatic for 3 days (<10% of cell death at the 3rd day); class II: cyctostatic but becomes cytotoxic with <10% cell death on the 2nd day, and >20% of cell death on the 3rd day; class III: cytostatic but rapidly becomes cytotoxic with <10% cell death on the 1st day, >20% of cell death on the 2nd day and >50% of cell death on the 3rd day; class IV: cytotoxic (>50% of cell death on the first day). The following applies: for global growth ratio (GGR): GG treated cells/GG control cells, 72 h after drug addition, drug at its IC50 (MTT-test determined); for Anti proliferative class: cellular imaging of cultured U373 cells over three consecutive days. An excerpt:
The effects of the di- and tri-substituted beta-carboline derivatives as described herein can also be determined on cell proliferation, migration and morphology by means of a cellular imaging approach (Debeir et al., Cytometry 60:29-40, 2004; Debeir et al., IEEE Trans Med Imaging 24:697-711, 2005) either in, e.g., the human U373-MG glioma cell line, which is apoptosis-resistant but autophagy-sensitive (Lefranc F et al., Neurosurgery 2008) or in, e.g., the human A549 non-small-cell-lung cancer cell line, which is apoptosis-resistant and autophagy-resistant (Mijatovic T et al., Neoplasia 2006, May; 8(5):402-12).
[…] The experiments are conducted in quadruplicates.
The behaviour of the cells, in terms of morphology, growth and death are thus investigated. The effect on the overall growth is measured by counting the number of cells on the first (0 h) and the last image (72 h) of each film. The global growth ratio (GGR) is then deduced by dividing the number of cells on the last image by the number of cells on the first image. The ratio GGRtreated cells/GGRcontrol cells is further calculated thereby providing a value that describes the effect of compounds of the present invention on the overall cell growth.
The methodology is fully described and validated in Debeir et al., 2008, Exp Cell Res 314:2985-2998 and Mathieu et al., 2009, J Cell Mol Med, Feb. 20, 2009.

Where [4] appears, read: mean over the cancer cell lines, MTT test, read-out: IC50 Mean ± SEM.
Setting [5] is: Homo sapiens, Hs 683, 72 hours of incubation.
Where [6] appears, read: Homo sapiens, OE21, 72 hours of incubation.
The mark [7] stands for this setting: Homo sapiens, OE33, 72 hours of incubation.
The mark [8] stands for this setting: Homo sapiens, mean over the cancer cell lines, MTT test, read-out: IC50 Mean ± SEM.

Like-named read-outs stand apart in the source and are kept apart here.

On to `Cc1c2c(cc[n+]1Cc1ccccc1)c1ccc(OCc3cccc(F)c3)cc1n2Cc1cccc(F)c1.[Br-]` [CV16, 1-methyl-2-benzyl-7-(3-fluorobenzyl)oxy-9-(3-fluorobenzyl)43-carbolin-2-ium bromide], for which the IC50 in the assay with U373 glioma cells amounted to 0.82 ± 0.08 µM; in the assay with T98G glioma cells it was 0.97 ± 0.02 µM; with Hs683 glioma cells (72 hours of incubation) it was 2.8 ± 0.4 µM; in assay [1] (72 hours of incubation) it was 0.4 ± 0.1 µM; in assay [2] (72 hours of incubation), 2.9 ± 0.1 µM; in assay [3] (setting [4]), 1.6 ± 0.5 µM. In addition, the “global growth ratio (GGR)” value with U373 cells was found to be 0.4. Moreover, the Anti proliferative class result in the assay on U373 cells is reported as “I (class I: actually cytostatic for 3 days (<10% of cell death at the 3rd day))”.
For `Cc1nccc2c1[nH]c1cc(OC(=O)c3ccccc3)ccc12` [JR140], the IC50 worked out at 27 ± 2 µM in the assay on U373 glioma cells; 42 ± 3 µM in the assay on T98G glioma cells; 53 ± 3 µM with Hs683 glioma cells (72 hours of incubation); 30 ± 4 µM in assay [1] (72 hours of incubation); 31 ± 4 µM in assay [2] (72 hours of incubation); 37 ± 5 µM in assay [3] (setting [4]). For the same compound, the “global growth ratio (GGR)” value in the assay with U373 cells came out at 0.2. The Anti proliferative class result in the assay on U373 cells was “III”.
`Cc1nccc2c1[nH]c1cc(OCc3cccc4ccccc34)ccc12` [JR147]: the IC50 with U373 glioma cells amounted to 7.4 ± 0.4 µM; in the assay on T98G glioma cells it was 12 ± 2 µM; in the assay on Hs683 glioma cells (72 hours of incubation), 19 ± 2 µM; in assay [1] (72 hours of incubation), 33 ± 8 µM; in assay [2] (72 hours of incubation), 8.2 ± 0.4 µM; in assay [3] (setting [4]), 16 ± 5 µM. In addition, the “global growth ratio (GGR)” value in the assay on U373 cells turned out to be 0.2. The Anti proliferative class entry in the assay with U373 cells was “IV (class IV: cytotoxic (>50% of cell death on the first day))”.
For the compound `Cc1nccc2c3ccc(OCC4CCCCC4)cc3n(CC3CCCCC3)c12` [CV12, 1-methyl-7-cyclohexylmethyloxy-9-cyclohexylmethyl-β-carboline], the IC50 in the assay on U373 glioma cells (Homo sapiens, U373 MG) was determined as 30.7 ± 0.8 µM; in the assay on T98G glioma cells (Homo sapiens, T98G) it was 32 ± 1 µM; in the assay with Hs683 glioma cells (setting [5]), 30 ± 2 µM; in assay [1] (setting [6]), 17 ± 2 µM; in assay [2] (setting [7]), 15 ± 3 µM; in assay [3] (Homo sapiens, Table 4, mean over cell lines, read-out: IC50 μM growth inhibition (MTT test)), 25 µM. The IC50 in assay [3] (setting [8]) is 25 ± 4 µM. Moreover, the “global growth ratio (GGR)” value with U373 cells was 0.2. Also, the Anti proliferative class result in the assay with U373 cells was “II”.
For the compound `CCCn1c2cc(OCc3ccccc3)ccc2c2cc[n+](Cc3ccccc3F)c(C)c21.[Br-]` [CV35, 1-methyl-2-(2-fluorobenzyl)-7-benzyloxy-9-propyl-β-carbolin-2-ium bromide], the IC50 in the assay with U373 glioma cells (Homo sapiens, U373 MG) was 0.39 ± 0.01 µM; in the assay with T98G glioma cells (Homo sapiens, T98G), 1.8 ± 0.3 µM; in the assay on Hs683 glioma cells (setting [5]), 0.45 ± 0.02 µM; in assay [1] (setting [6]) it was 0.42 ± 0.02 µM; in assay [2] (setting [7]), 0.25 ± 0.02 µM; in assay [3] (setting [8]), 0.7 ± 0.3 µM. For the same compound, in the assay on U373 cells, the “global growth ratio (GGR)” value is on record as 0.4. Besides, in the assay on U373 cells, the Anti proliferative class result is listed as “I (class I: actually cytostatic for 3 days (<10% of cell death at the 3rd day))”.
In the case of `Cc1c2c(cc[n+]1Cc1ccccc1F)c1ccc(OCc3ccccc3)cc1n2Cc1ccccc1.[Br-]` [CV18, 1-methyl-2-(2-fluorobenzyl)-7-benzyloxy-9-benzyl-β-carbolin-2-ium bromide], the IC50 was 0.5 ± 0.2 µM with U373 glioma cells (Homo sapiens, U373 MG); 0.37 ± 0.01 µM in the assay with T98G glioma cells (Homo sapiens, T98G); 0.44 ± 0.04 µM with Hs683 glioma cells (setting [5]); 0.38 ± 0.02 µM in assay [1] (setting [6]); 0.7 ± 0.08 µM in assay [2] (setting [7]); 0.34 to 0.8 µM in assay [3] (Homo sapiens, Glioma cell, MTT assay, submicromolar range, e.g. as low as, read-out: mean anti-proliferative effect on the glioma cell lines). Also, in assay [3] (setting [8]), the IC50 stood at 0.48 ± 0.06 µM. Moreover, the “global growth ratio (GGR)” value with U373 cells is given as 0.3. The Anti proliferative class result with U373 cells is on record as “I (class I: actually cytostatic for 3 days (<10% of cell death at the 3rd day))”.
For the compound `Cc1nccc2c1[nH]c1cc(OCC(C)C)ccc12` [JR221], the IC50 turned out to be 24 ± 1 µM with U373 glioma cells; 22 ± 3 µM in the assay on T98G glioma cells; 23 ± 1 µM with Hs683 glioma cells (72 hours of incubation); 12 ± 3 µM in assay [1] (72 hours of incubation); 25 ± 1 µM in assay [2] (72 hours of incubation); 22 ± 3 µM in assay [3] (setting [4]). Further, the “global growth ratio (GGR)” value with U373 cells worked out at 0.1. In addition, the Anti proliferative class entry in the assay with U373 cells is “IV (class IV: cytotoxic (>50% of cell death on the first day))”.

These data come from patent US9168247B2, “Beta carboline derivatives useful in the treatment of proliferative disorders” (FACULTES UNIVERSITAIRES NOTRE DAME DE LA PAIX, priority 2010, dated 2015).
